Values belong to the compound of their own block, whether it stands above or below them.
Assays:
human limbal explants = experiment: Epithelial outgrowth from human limbal explants cultured on intact AM with kinase inhibitors; type: cell-based; settings: for epithelial outgrowth: limbal explant on intact AM in SHEM, vs DMSO control
Procedure: Human AM was provided by Bio-Tissue (Miami, Fla.) and stored at −80° C. before use. AM was devitalized by freezing and thawing and washed three times with HBSS before being fastened onto a 30 mm culture insert, Millicel-CM (which generated an insert with 23 mm diameter covered by AM), and placed in a 6 well plate (Meller, D. and Tseng S C G, Invest Ophthalmol Vis Sci., 40:878-86, 1999).
After removal of excessive sclera, iris, corneal endothelium, conjunctiva, and Tenon's capsule, the limbal ring was separated by a 7.5 mm trephine from donor human corneas. Each limbal ring was rinsed 3 times with SHEM media. The limbal ring was then exposed for 10 min to 1.2 units/ml Dispase II in Mg^2+- and Ca^2+-free HBSS at 37° C. under 95% humidity and 5% CO2. Following three rinses with SHEM medium, each limbal ring was subdivided into two halves and each half further subdivided into 6 pieces of 1×1.5×2.5 mm explants. To eliminate variations of age, sex, and race, explants from the corresponding position of the same donor cornea were selected for the control and the experimental group, respectively. An explant was placed on the center of intact AM or plastic with the epithelial side facing up and cultured in SHEM medium. The experimental group was added with the inhibitor of desired concentration, while the control group was added with the same concentration of DMSO as the vehicle which was used to dissolve each inhibitor. The culture was maintained at 37° C. under 95% humidity and 5% CO2, the medium was changed every other day, and their outgrowth was monitored daily for 17 days using an inverted phase microscope (Nikon, Japan). The outgrowth area was digitized every other day by Adobe Photoshop 5.5 and analyzed by NIH ImageJ 1.30v (NIH, Bethesda, Md.).
All experiments were performed at least in triplicate. Summary data were reported as means±S.D., compiled and analyzed by MicroSoft Excel™ (MicroSoft, Redmont, Wash.). The mean and standard deviation were calculated for each group using the appropriate version of Student's unpaired t-test. Test results were reported as two-tailed p values, where p<0.05 was considered statistically significant.

Akt = experiment: Western blot of Akt phosphorylation in limbal epithelial cells expanded on intact AM; type: cell-based, human
p44/42 MAPK [1] = experiment: Western blot of p44/42 MAPK phosphorylation in limbal epithelial cells expanded on intact AM; type: cell-based, human
FKHRL1 = experiment: Western blot of FKHRL1 phosphorylation in limbal epithelial cells expanded on intact AM; type: cell-based, human
p44/42 MAPK [2] = settings: 10 μM; cited from earlier work
[3] = system: murine limbal epithelial cells; experiment: Clonal expansion of single cell expanded murine limbal epithelial cells in KSFM; type: cell-based, mouse; settings: 10 pg/ml and 150 pg/ml; 50 cells/cm^2 in KSFM, 6 days
Procedure: Single cell expanded murine limbal epithelial cells were seeded at 50 cells/cm^2 in KSFM and cultured for 6 days. […] Cells seeded at 20,000 cells/cm^2 in KSFM became enlarged.

[4] = system: murine limbal epithelial progenitor cells; experiment: α-SMA expression in clonal cultures of murine limbal epithelial progenitor cells; type: cell-based, mouse; settings: 5 ng/ml in KSFM; low seeding density (500 cells/cm^2)
Procedure: In clonal cultures of murine limbal epithelial progenitor cells, expression of α-SMA, a marker for myofibroblasts, was not detected when clonally expanded murine limbal epithelial cells were seeded at low density (500 cells/cm^2), but increasingly detected when cells were seeded at the intermediate (5,000 cells/cm^2) and high seeding densities (50,000 cells/cm^2). Cells expressing α-SMA were larger and squamous and could also express p63 in the nucleus. […] Under these conditions, expression of S100A shifted from cytoplasm to the nucleus, signaling of Smad 4 moved from cytoplasm to the nucleus, expression of […] moved from the intercellular junction to the cytoplasm and the perinucleus, the signaling of β-catenin moved from the intercellular junctions to the nucleus), and the signaling of LEF-1 also moved from the cytoplasm to the nucleus.

[5] = system: Smad-mediated TGF-β signaling; experiment: Immunolocalization of Smad 2 and Smad 4 in murine keratocytes; type: cell-based, mouse; settings: 10 ng/ml, cells on plastic in DMEM/ITS (16% without TGF-β1)
Procedure: Isolation and Culture of Keratocytes on Plastic or AM—Albino mice eyes were enucleated by forceps, washed profusely in PBS, and incubated in DMEM containing 20 mM HEPES, 15 mg/ml dispase II (Roche, Indianapolis, Ind.) and 100 mM sorbitol at 4° C. for 18 h (see Espana et al., Invest Ophthalmol Vis Sci. 44:4275-4281, 2003; Kawakita et al., Invest Ophthalmol Vis Sci. 45:3507-3512, 2004). The entire corneal epithelium loosened by this treatment was subsequently removed by vigorous shaking. Under a dissecting microscope, the corneal stroma was separated from the sclera at the corneoscleral limbus by pressing down the limbus with a 27 G needle while the eye was held with a forcep. Isolated corneal stromas were incubated overnight at 37° C. in DMEM containing 1.25 mg/ml collagenase A (Roche, Indianapolis, Ind.), 50 μg/ml gentamicin and 20 mM HEPES in a non-coated plastic dish until the tissue became “smeared” onto the dish bottom. Digested corneal stromas in collagenase A were centrifuged at 800×g for 5 min. Keratocytes were resuspended in DMEM containing 20 mM HEPES, ITS (5 μg/ml insulin, 5 μg/ml transferrin and 5 ng/ml sodium selenite), 50 μg/ml gentamicin and 1.25 μg/ml amphotericin B with or without 10% FBS. […]

murine keratocytes = experiment: α-SMA expression (myofibroblast differentiation) of murine keratocytes; type: cell-based, mouse; settings: cells on plastic; 5 days of continuous stimulation with TGF-β1
Procedure: TGF-β1 Challenge and Neutralizing Antibody—To assess whether TGF-β1 affected the cell phenotype, triggered Smad 2 and Smad 4 nuclear translocation, and differentiated keratocytes into myofibroblasts, 10 ng/ml human recombinant TGF-β1 (Sigma, St Louis, Mo.) was added to serum-free DMEM/ITS cells for 3 h or 5 days when cells expanded on AM were passed to 24 well plastic dishes and AM inserts, respectively. In addition, primary keratocytes were seeded and cultured on AM or plastic for 3 days in DMEM/ITS or DMEM/10% FBS for 24 h, of which the latter was treated with or without 10 μg of a monoclonal antibody neutralizing TGF-β1, -β2, and -β3 (R&D Systems, Minneapolis, Minn.) per ml of DMEM medium for 48 h before adenoviral transfection.
To confirm that TGF-β was indeed responsible for Smad signaling in DMEM/10% FBS, a neutralizing antibody to three TGF-β isoforms was added to the plastic cultures. Nuclear translocation of Smad 4 was prevented. […] Thirty-nine percent of cells cultured on plastic differentiated into α-SMA-expressing myofibroblasts, but no cell on AM expressed α-SMA even after 5 days of continuous stimulation with TGF-β1.

Smad2 = experiment: Nuclear accumulation of Smad2 in rhesus monkey keratocytes; type: cell-based; settings: 4 ng/ml added in KSFM for 48 hours (19.3±5.1% in KSFM alone)
From the text: Three rhesus monkeys (Macaca Mulatta), 4 years old, and rabbit and mouse cornea were obtained from an approved tissue-sharing program after euthanasia. An entire anterior corneoscleral segment was removed from the globe by cutting near the limbus with Wescott's scissors. A central cornea was obtained with an 8.0 mm Barron's trephine and immediately transferred to KSFM medium (cat# 17005-042, GIBCO Invitrogen corporation, Carlsbad, Calif.). After removing Descemet's membrane and the corneal endothelium, the corneal epithelium was removed by dispase digestion for 16 h at 4° C. and the remaining corneal stroma was incubated at 37° C. for 16 h in 2.5 ml of DMEM containing 1 mg/ml collagenase A, 20 mM HEPES, 50 μg/ml gentamicin and 1.25 μg/ml amphotericin in a plastic dish. Afterwards, corneal stromal cells were resuspended in 1 ml of KSFM, centrifuged to remove residual matrices, resuspended in KSFM, and seeded on plastic dishes in KSFM or DMEM containing insulin, transferrin, and selenium supplement (DMEM/ITSG) (cat# 41400-045, GIBCO, Carlsbad, Calif.) or 10% FBS (DMEM/10% FBS).
When the primary culture on plastic reached 80% confluence, cells were rendered into single cells by incubation in BSS containing 0.25% trypsin/1 mM EDTA at 37° C. for 1 to 5 minutes, and the enzymatic reaction was stopped by adding soybean-trypsin inhibitor. […]

TGF-β1 promoter = experiment: TGF-β promoter assay in human limbal epithelial cells; type: cell-based
Procedure: Human corneal fibroblasts were transiently transfected with the aforementioned adenoviral promoter constructs. […] 2, 2005 and entitled “Suppression Of TGF-B Activity By Amniotic Membrane Extracts, Compositions Thereof, And Methods For The Prevention And Suppression Of Scarring And Inflammation” in a dose-dependent manner (from 0.04 to 125 μg/ml) in human corneal fibroblasts. […] The suppressive effect of both AME and HA alone was lost after pretreatment with HAse. […] A similar result was obtained for TGF-βRII promoter activity.

[6] = after 17 days of treatment at 50 μM
[7] = after 17 days of treatment at 10 μM

Compound: O=c1cc(N2CCOCC2)oc2c(-c3ccccc3)cccc12 [LY294002]
epithelial outgrowth (human limbal explants; 5 μM, up to 17 days): not significantly inhibited | epithelial outgrowth (human limbal explants; 10 μM, up to 17 days): not significantly inhibited | time to re-initiation of outgrowth after switch to fresh medium (human limbal explants; [6]): 2 days | time to reach ~80% confluence after removal of inhibitor (human limbal explants; [6]): 30 days

epithelial outgrowth (human limbal explants; 50 μM): completely inhibited
Compound: CCOC(=O)c1ccc2[nH]c3c(OC)c4[nH]c5ccc(C(=O)OCC)cc5c4cc3c2c1 [SR13668]
phosphorylation of Akt at Thr308 and Ser473 (Akt; 50 μM): abolished | p44/42 MAPK phosphorylation (p44/42 MAPK [1]; 50 μM): did not change | Thr32 phosphorylation of FKHRL1 (FKHRL1; 50 μM): abolished | reduction of the outgrowth rate (human limbal explants; 10 μM, from day 5 to day 11): 50% | reduction of the outgrowth rate (human limbal explants; 10 μM, from day 11 on): 60% | time to re-initiation of outgrowth after switch to fresh medium (human limbal explants; [6]): 2 days | time to reach ~80% confluence after removal of inhibitor (human limbal explants; [6]): 30 days

Compound: N#CC(=C(/N)Sc1ccccc1N)/C(C#N)=C(\N)Sc1ccccc1N [U0126]
phosphorylation of Akt at Ser473 (Akt; 10 μM): decreased | phosphorylation of Akt at Thr308 (Akt; 10 μM): eliminated | phosphorylation of p44/42 MAPK (Thr202 and Tyr204) (p44/42 MAPK [1]; 10 μM): abolished | phosphorylation of FKHRL1 at Thr32 (FKHRL1; 10 μM): decreased | p44/42 MAPK phosphorylation in many cells (p44/42 MAPK [2]): completely inhibited | day at which epithelial outgrowth was noted / started (human limbal explants; 10 μM): 8 days | average outgrowth area at day 17 (human limbal explants; 10 μM, day 17): 17.0±3.0 mm^2 | epithelial outgrowth (human limbal explants; 10 μM, up to 17 days): almost halted | time to re-initiation of outgrowth after switch to fresh medium (human limbal explants; [7]): 2 days | time to reach ~80% confluence after removal of inhibitor (human limbal explants; [7]): 25 days

Compound: TGF-β1: human recombinant TGF-β1 (Sigma)
clonal expansion [3]: dose-dependently suppressed | α-SMA expression [4]: upregulated | cells with nuclear localization of Smad 4 ([5]; 3 h): 67% | cells with nuclear localization of Smad 4 ([5]; 5 days): 85% | cells differentiated into α-SMA-expressing myofibroblasts (murine keratocytes): Thirty-nine | percentage of nuclear accumulation of Smad2 (Smad2): 34.7±4.9%

Compound: hyaluronic acid [HA]
suppressive effect on TGF-β1 promoter activity after pretreatment with HAse (TGF-β1 promoter): lost
